Target: T1, sGC α1/β1 heterodimer stably expressed in CHO-K1 cell line (CHO-K1/sGC) (Homo sapiens, UniProt Q02108+Q02153)
T1 construct: expressed in transfected cells
T1 sequence (Q02108 1-690): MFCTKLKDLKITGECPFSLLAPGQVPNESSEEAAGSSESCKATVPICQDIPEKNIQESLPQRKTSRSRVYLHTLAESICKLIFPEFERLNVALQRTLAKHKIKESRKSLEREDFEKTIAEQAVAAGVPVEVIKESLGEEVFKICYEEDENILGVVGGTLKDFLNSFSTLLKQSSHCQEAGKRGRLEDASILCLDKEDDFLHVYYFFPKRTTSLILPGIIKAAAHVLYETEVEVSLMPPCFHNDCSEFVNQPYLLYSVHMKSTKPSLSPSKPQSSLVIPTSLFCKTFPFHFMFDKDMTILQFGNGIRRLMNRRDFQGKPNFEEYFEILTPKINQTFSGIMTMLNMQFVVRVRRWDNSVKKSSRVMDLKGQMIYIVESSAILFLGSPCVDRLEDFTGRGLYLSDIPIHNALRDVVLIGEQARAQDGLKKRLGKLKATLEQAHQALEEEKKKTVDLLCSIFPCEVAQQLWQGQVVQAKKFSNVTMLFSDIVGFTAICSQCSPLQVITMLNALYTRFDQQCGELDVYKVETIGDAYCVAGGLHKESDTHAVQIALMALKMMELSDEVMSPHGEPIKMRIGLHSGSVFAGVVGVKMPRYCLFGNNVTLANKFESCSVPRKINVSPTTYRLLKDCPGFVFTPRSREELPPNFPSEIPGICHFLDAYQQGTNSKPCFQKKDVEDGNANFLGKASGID
T1 sequence (Q02153 1-619): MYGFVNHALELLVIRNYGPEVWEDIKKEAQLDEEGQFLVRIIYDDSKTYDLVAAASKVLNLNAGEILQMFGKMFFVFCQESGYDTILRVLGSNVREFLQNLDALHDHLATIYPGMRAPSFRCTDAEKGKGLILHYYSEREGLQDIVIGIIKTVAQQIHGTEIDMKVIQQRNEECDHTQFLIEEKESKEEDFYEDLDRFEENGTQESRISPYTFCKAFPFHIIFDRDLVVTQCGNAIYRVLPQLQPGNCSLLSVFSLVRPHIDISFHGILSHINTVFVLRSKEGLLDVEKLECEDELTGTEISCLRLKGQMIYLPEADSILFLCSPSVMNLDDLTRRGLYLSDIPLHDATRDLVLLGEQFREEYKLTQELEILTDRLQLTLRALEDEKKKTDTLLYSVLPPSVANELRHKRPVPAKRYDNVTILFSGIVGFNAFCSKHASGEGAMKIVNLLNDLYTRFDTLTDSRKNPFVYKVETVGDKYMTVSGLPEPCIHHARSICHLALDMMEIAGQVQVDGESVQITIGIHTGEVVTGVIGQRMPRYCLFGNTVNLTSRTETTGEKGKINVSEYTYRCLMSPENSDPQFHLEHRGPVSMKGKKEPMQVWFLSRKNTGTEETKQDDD
Assay: Cell-based sGC Functional Assay (CASA Assay), cGMP generation
Details: CHO-K1/sGC cells, 1 hr at 37° C., cGMP by HTRF, presence or absence of 1 μM DETA-NO not given; for EC50: 4P fit, read-out: IP (nM) (inflection point)
Procedure, shortened: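 CHO-K1 cells stably expressing human sGC α1/β1 (4×10^5/mL, 0.5 mM IBMX) were treated with compounds (2.5% DMSO final) ± 1 μM DETA-NO for 1 hr at 37° C. Intracellular cGMP measured by HTRF. Activity expressed as % of Compound A maximal cGMP; IP and maximum fold induction from 4P fit.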

| SMILES | EC50 [nM] | Emax (read-out: % Act. (percent activation relative to maximum cGMP production of Compound A = 100%)) [%] |
| --- | --- | --- |
| CCCCc1nc(-c2nc(N)c3c(n2)NC(=O)C3(C)c2ccc(Cl)c(F)c2)cn2ncnc12 (stereo not shown) [Example 62B, 4-amino-2-(8-butyl-[1,2,4]triazolo[1,5-a]pyrazin-6-yl)-5-(4-chloro-3-fluorophenyl)-5-methyl-5H-pyrrolo[2,3-d]pyrimidin-6(7H)-one] | 51 | – |
| CCCCc1nc(-c2nc(N)c3c(n2)NC(=O)C3(C)c2ccc(Cl)cc2)cn2ncnc12 (stereo not shown) [Example 63A, 4-amino-2-(8-butyl-[1,2,4]triazolo[1,5-a]pyrazin-6-yl)-5-(4-chlorophenyl)-5-methyl-5H-pyrrolo[2,3-d]pyrimidin-6(7H)-one] | 21.9 | – |
| CCCCc1nc(-c2nc(N)c3c(n2)NC(=O)C3(C)c2ccc(F)c(F)c2)cn2ncnc12 (stereo not shown) [Example 64B, 4-amino-2-(8-butyl-[1,2,4]triazolo[1,5-a]pyrazin-6-yl)-5-(3,4-difluorophenyl)-5-methyl-5H-pyrrolo[2,3-d]pyrimidin-6(7H)-one] | 5.1 | 90 |
| CCCCc1nc(-c2nc(N)c3c(n2)NC(=O)C3(c2ccc(F)c(F)c2)C2CC2)cn2ncnc12 (stereo not shown) [Example 65A, 4-amino-2-(8-butyl-[1,2,4]triazolo[1,5-a]pyrazin-6-yl)-5-cyclopropyl-5-(3,4-difluorophenyl)-5H-pyrrolo[2,3-d]pyrimidin-6(7H)-one] | 2.6 | – |
| CCCCc1nc(-c2nc(N)c3c(n2)NC(=O)C3(c2ccc(F)cn2)C2CC2)cn2ncnc12 (stereo not shown) [Example 66A, 4-amino-2-(8-butyl-[1,2,4]triazolo[1,5-a]pyrazin-6-yl)-5-cyclopropyl-5-(5-fluoropyridin-2-yl)-5H-pyrrolo[2,3-d]pyrimidin-6(7H)-one] | 34.2 | – |
| CCCCc1nc(-c2nc(N)c3c(n2)NC(=O)C3(C)c2ccc(C(F)(F)F)cn2)cn2ncnc12 (stereo not shown) [Example 67B, 4-amino-2-(8-butyl-[1,2,4]triazolo[1,5-a]pyrazin-6-yl)-5-methyl-5-(5-(trifluoromethyl)pyridin-2-yl)-5H-pyrrolo[2,3-d]pyrimidin-6(7H)-one] | 25.5 | – |
| CCCCc1nc(-c2nc(N)c3c(n2)NC(=O)C3(c2ccc(Cl)cn2)C2CC2)cn2ncnc12 (stereo not shown) [Example 68A, 4-amino-2-(8-butyl-[1,2,4]triazolo[1,5-a]pyrazin-6-yl)-5-(5-chloropyridin-2-yl)-5-cyclopropyl-5H-pyrrolo[2,3-d]pyrimidin-6(7H)-one] | 18.7 | – |
| CCCCc1nc(-c2nc(N)c3c(n2)NC(=O)C3(C)c2ccc(Cl)cn2)cn2ncnc12 (stereo not shown) [Example 69A, 4-amino-2-(8-butyl-[1,2,4]triazolo[1,5-a]pyrazin-6-yl)-5-(5-chloropyridin-2-yl)-5-methyl-5H-pyrrolo[2,3-d]pyrimidin-6(7H)-one] | 13.7 | – |
| CCCCc1nc(-c2nc(N)c3c(n2)NC(=O)C3(c2ccc(C(F)(F)F)cn2)C2CC2)cn2ncnc12 (stereo not shown) [Example 70A, 4-amino-2-(8-butyl-[1,2,4]triazolo[1,5-a]pyrazin-6-yl)-5-cyclopropyl-5-(5-(trifluoromethyl)pyridin-2-yl)-5H-pyrrolo[2,3-d]pyrimidin-6(7H)-one] | 41.8 | – |
| CCCCc1nc(-c2nc(N)c3c(n2)NC(=O)C3(C)c2ccc(C)cn2)cn2ncnc12 (stereo not shown) [Example 71B, 4-amino-2-(8-butyl-[1,2,4]triazolo[1,5-a]pyrazin-6-yl)-5-methyl-5-(5-methylpyridin-2-yl)-5H-pyrrolo[2,3-d]pyrimidin-6(7H)-one] | 5.5 | – |
| CC(C)Cc1nc(-c2nc(N)c3c(n2)NC(=O)[C@@]3(C)c2ccc(F)cc2)cn2ncnc12 [Example 73A, (S)-4-amino-5-(4-fluorophenyl)-2-(8-isobutyl-[1,2,4]triazolo[1,5-a]pyrazin-6-yl)-5-methyl-5,7-dihydro-6H-pyrrolo[2,3-d]pyrimidin-6-one] | 44.1 | – |
| C[C@@]1(c2ccc(F)cc2)C(=O)Nc2nc(-c3cn4ncnc4c(CCC(F)(F)F)n3)nc(N)c21 [Example 74A, (S)-4-amino-5-(4-fluorophenyl)-5-methyl-2-(8-(3,3,3-trifluoropropyl)-[1,2,4]triazolo[1,5-a]pyrazin-6-yl)-5,7-dihydro-6H-pyrrolo[2,3-d]pyrimidin-6-one] | 55.6 | – |

From US9822130B2, “Triazolo-pyrazinyl derivatives useful as soluble guanylate cyclase activators” (Merck Sharp & Dohme Corp., priority 2014, dated 2017)
